From ChEMBL document CHEMBL5625235, “Discovery of X10g as a selective PROTAC degrader of Hsp90α protein for treating breast cancer” (Eur J Med Chem, 2023)
Active and inactive are the calls of the source. The rule behind the calls is not given here.

Legend:
MDA-MB-468 = assay: Antiproliferative activity against human MDA-MB-468 cells assessed as inhibition of cell proliferation incubated for 72 hrs by MTT assay; format: functional, cell-based; details: MDA-MB-468, 72 h
MX1 = assay: Antiproliferative activity against human MX1 cells assessed as inhibition of cell proliferation incubated for 72 hrs by MTT assay; format: functional, cell-based; details: MX1, 72 h
MDA-MB-231 = assay: Antiproliferative activity against human MDA-MB-231 cells assessed as inhibition of cell proliferation incubated for 72 hrs by MTT assay; format: functional, cell-based; details: MDA-MB-231, 72 h
MCF7 = assay: Antiproliferative activity against human MCF7 cells assessed as inhibition of cell proliferation incubated for 72 hrs by MTT assay; format: functional, cell-based; details: MCF7, 72 h
[1] = target: Protein cereblon/Heat shock protein HSP 90-alpha (Homo sapiens, UniProt P07900+Q96SW2); assay: PROTAC activity at CRBN/HSP90alpha in human MCF7 cells assessed as induction of HSP90alpha degradation at 0.5 uM incubated for 8 hrs by Western blot analysis; format: cell-based
[2] = target: Protein cereblon/Heat shock protein HSP 90-beta (Homo sapiens) (UniProt P08238+Q96SW2); assay: PROTAC activity at CRBN/HSP90beta in human MCF7 cells assessed as induction of HSP90beta degradation at 0.5 uM incubated for 8 hrs by Western blot analysis; format: cell-based
[3] = target: Heat shock protein HSP 90-beta (Homo sapiens, UniProt P08238); assay: Inhibition of HSP90beta (unknown origin) incubated for 24 hrs by fluorescence polarization assay
Heat shock protein HSP 90-beta, sequence (P08238 whole entry, the tested form may be a part): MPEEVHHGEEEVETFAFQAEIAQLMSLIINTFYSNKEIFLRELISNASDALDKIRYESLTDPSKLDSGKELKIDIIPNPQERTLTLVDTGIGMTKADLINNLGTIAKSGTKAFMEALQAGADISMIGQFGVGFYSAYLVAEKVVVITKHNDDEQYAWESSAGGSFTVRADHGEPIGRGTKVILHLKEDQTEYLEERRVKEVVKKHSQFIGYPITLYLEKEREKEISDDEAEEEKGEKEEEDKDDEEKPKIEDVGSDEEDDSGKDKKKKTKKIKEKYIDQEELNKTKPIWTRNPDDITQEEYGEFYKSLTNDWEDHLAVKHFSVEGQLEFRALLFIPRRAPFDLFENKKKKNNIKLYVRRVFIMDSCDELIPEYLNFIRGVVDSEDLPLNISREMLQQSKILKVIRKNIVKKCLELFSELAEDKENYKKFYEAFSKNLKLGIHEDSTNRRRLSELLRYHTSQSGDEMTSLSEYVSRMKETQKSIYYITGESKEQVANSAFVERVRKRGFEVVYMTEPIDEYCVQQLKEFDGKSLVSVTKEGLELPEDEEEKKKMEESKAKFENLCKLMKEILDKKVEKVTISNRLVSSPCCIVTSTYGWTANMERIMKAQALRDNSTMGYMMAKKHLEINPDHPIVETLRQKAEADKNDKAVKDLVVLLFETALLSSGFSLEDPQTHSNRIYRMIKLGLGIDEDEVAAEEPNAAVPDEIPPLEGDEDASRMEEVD

[4] = target: T1, Heat shock protein HSP 90-alpha (Homo sapiens, UniProt P07900); assay: Inhibition of 6His-tagged human HSP90alpha N-terminal domain (1 to 223 residues) expressed in Escherichia coli BL21 DE3 cells incubated for 24 hrs by fluorescence polarization assay
[5] = Toxicity in BALB/c mouse implanted with mouse 4T1 cells assessed as effect on body weight at 50 mg/kg, ip administered twice a week and measured after 20 days; format: organism-based; details: in vivo, 480 h, time 20 day
[6] = target: T1, Heat shock protein HSP 90-alpha; assay: Induction of HSP90alpha degradation in human MCF7 cells at 0.5 uM incubated for 8 hrs by Western blot analysis; format: cell-based
[7] = target: T1, Heat shock protein HSP 90-alpha; assay: Induction of HSP90alpha degradation in human MCF7 cells at 0.5 uM incubated for 8 hrs in presence of pomalidomide by Western blot analysis; format: cell-based
4T1 [8] = assay: Antitumor activity against mouse 4T1 cells implanted in BALB/c mouse assessed as tumor growth inhibition at 50 mg/kg, ip administered twice a week and measured after 20 days relative to control; format: functional; details: 4T1, 480 h, time 20 day, read-out: TGI
4T1 [9] = assay: Antitumor activity against mouse 4T1 cells implanted in BALB/c mouse assessed as reduction in tumor weight at 50 mg/kg, ip administered twice a week and measured after 20 days; format: functional, organism-based; details: time 20.0 day

Row | SMILES | IC50 (MDA-MB-468) [µM] | IC50 (MX1) [µM] | IC50 (MDA-MB-231) [µM] | IC50 (MCF7) [µM] | Activity [1] | Activity [2] | IC50 [3] [µM] | IC50 [4] [µM] | Activity [5] | Activity [6] | Activity [7] | inhibition in vivo at 50 mg/kg (4T1 [8]) [%] | Activity (4T1 [9])
1 | CC(C)c1cc(C(=O)N2Cc3ccc(CN4CCN(CCC(=O)Nc5cccc6c5C(=O)N(C5CCC(=O)NC5=O)C6=O)CC4)cc3C2)ccc1O (configuration not stated) | > 100 | > 100 | > 100 | 27.1 |  |  |  |  |  |  |  |  | 
2 | CC(C)c1cc(C(=O)N2Cc3ccc(CN4CCN(CCCCCCC(=O)Nc5cccc6c5C(=O)N(C5CCC(=O)NC5=O)C6=O)CC4)cc3C2)c(O)cc1O (configuration not stated) | 3.67 | 0.31 | 12.1 | 0.92 | inactive | inactive |  |  |  |  |  |  | 
3 | CC(C)c1cc(C(=O)N2Cc3ccccc3C2)c(O)cc1O |  |  |  |  |  |  | 0.004 |  |  |  |  |  | 
4 | Nc1cccc2c1CN(C1CCC(=O)NC1=O)C2=O (configuration not stated) [LENALIDOMIDE] | > 100 | > 100 | > 100 | > 100 |  |  |  |  |  |  |  |  | 
5 | CC(C)c1cc(C(=O)N2Cc3ccc(CN4CCN(C(=O)CCCCNc5cccc6c5CN(C5CCC(=O)NC5=O)C6=O)CC4)cc3C2)c(O)cc1O (configuration not stated) | 13.2 | 2.02 | 4.3 | 1.3 | inactive | inactive |  |  |  |  |  |  | 
6 | CC(C)c1cc(C(=O)N2Cc3ccc(CN4CCN(CCCCCCCC(=O)Nc5cccc6c5C(=O)N(C5CCC(=O)NC5=O)C6=O)CC4)cc3C2)c(O)cc1O (configuration not stated) | 30.6 | 4.94 | 62.8 | 6.03 | inactive | inactive |  |  |  |  |  |  | 
7 | CC(C)c1cc(C(=O)N2Cc3ccc(CN4CCN(C(=O)CCCCCNc5cccc6c5CN(C5CCC(=O)NC5=O)C6=O)CC4)cc3C2)c(O)cc1O (configuration not stated) | 0.75 | 1.93 | 4.79 | 4.47 | inactive | inactive |  |  |  |  |  |  | 
8 | CC(C)c1ccc(O)c(C(=O)N2Cc3ccccc3C2)c1 |  |  |  |  |  |  | 1.6 | 3.21 |  |  |  |  | 
9 | CC(C)c1cc(C(=O)N2Cc3ccc(CN4CCN(C)CC4)cc3C2)c(O)cc1O [ONALESPIB] | 3.31 | 0.5 | 2.6 | 0.84 |  |  |  |  | Toxic | inactive | inactive | 43.2 | Active
10 | CC(C)c1cc(C(=O)N2Cc3ccc(CN4CCN(CCCCCC(=O)Nc5cccc6c5C(=O)N(C5CCC(=O)NC5=O)C6=O)CC4)cc3C2)c(O)cc1O (configuration not stated) | 27.2 | 0.03 | 5.11 | 0.58 | inactive | inactive |  |  |  |  |  |  | 
11 | CC(C)c1cc(C(=O)N2Cc3ccccc3C2)ccc1O |  |  |  |  |  |  | 4.47 | 0.41 |  |  |  |  | 
